This passage reports Ki results from patent publication US5968929A, “Piperazino derivatives as neurokinin antagonists” (Schering Corporation, priority 1997, dated 1999).

Assay [1] deals with T1, human neurokinin 2 (NK2) receptor (Homo sapiens, UniProt P21452).
T1 construct: expressed in transfected cells; host or cells: Chinese hamster ovary (CHO) cells, membranes
T1 sequence (P21452 1-398): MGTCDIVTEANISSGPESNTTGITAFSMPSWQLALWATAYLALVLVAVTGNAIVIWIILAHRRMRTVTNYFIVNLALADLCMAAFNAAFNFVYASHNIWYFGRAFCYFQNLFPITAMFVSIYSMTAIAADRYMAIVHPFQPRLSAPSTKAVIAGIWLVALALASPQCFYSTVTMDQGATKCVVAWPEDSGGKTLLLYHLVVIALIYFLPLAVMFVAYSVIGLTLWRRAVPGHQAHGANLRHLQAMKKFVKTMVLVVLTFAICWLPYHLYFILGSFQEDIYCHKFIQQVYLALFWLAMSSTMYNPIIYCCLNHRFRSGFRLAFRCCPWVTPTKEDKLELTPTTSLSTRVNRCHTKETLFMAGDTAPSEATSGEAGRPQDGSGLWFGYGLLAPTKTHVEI
Briefly: Neurokinin receptor binding assay, NK2 ([3H]-Neurokinin A, CHO cell membranes). To be noted: competition with [3H]-Neurokinin A, Cheng and Prusoff. On the procedure:
(§1) Neurokinin Receptor Binding Assay(s)
(§2) Chinese Hamster ovary (CHO) cells transfected with the coding regions for the human neurokinin 1 (NK1) of the human neurokinin 2 (NK2) receptors are grown in Dulbecco's minimal essential medium supplemented with 10% fetal calf serum, 0.1 mM non-essential amino acids, 2 mM glutamine, 100 units/ml of penicillin and streptomycin, and 0.8 mg of G418/ml at 37° C. in a humidified atmosphere containing 5% CO2.
(§3) Cells are detached from T-175 flasks with a sterile solution containing 5 mM EDTA in phosphate buffered saline. Cells are harvested by centrifugation and washed in RPMI media at […] for 5 minutes. The pellet is resuspended in Tris-HCl(pH7.4) containing 1 uM phosphoramidon and 4 ug/ml of chymostatin at a cell density of 30×10^6 cells/ml. The suspension is then homogenized in a Brinkman Polytron (setting 5) for 30-45 seconds. The homogenate is centrifuged at 800×g for 5 min at 4° C. to collect unbroken cells and nuclei. The supernatant is centrifuged in a Sorvall RC5C at 19,000 rpm ([…]) for 30 min at 4° C. The pellet is resuspended, an aliquot is removed for a protein determination (BCA) and washed again. The resulting pellet is stored at -80° C.
(§4) Binding is initiated by the addition of 100 μl of membrane (10-20 μg) containing the human NK-1 or NK-2 receptor in a final volume of 200 μl. After 40 minutes at room temperature, the reaction is stopped by rapid filtration onto Whatman GF/C filters which have been presoaked in 0.3% polyethylenimine. Filters are washed 2 times with 3 ml of 50 mM Tris-HCl (pH7.4). Filters are added to 6 mls of Ready-Safe liquid scintillation cocktail and quantified by liquid scintillation spectrometry in a LKB 1219 RackBeta counter. Non-specific binding is determined by the addition of either 1 μM of CP-99994 (NK1) or 1 μM SR-48968 (NK2) (both synthesized by the chemistry department of Schering-Plough Research Institute).

Assay [2] addresses T2, human neurokinin 1 (NK1) receptor (Homo sapiens, UniProt P25103).
T2 construct: expressed in transfected cells; host or cells: Chinese hamster ovary (CHO) cells, membranes
As to the kind of experiment: Neurokinin receptor binding assay, NK1 ([3H]-Substance P, CHO cell membranes). To be noted: competition with [3H]-Substance P, Cheng and Prusoff. On the procedure: as §1, §2, §3, §4

T2 sequence (P25103 whole entry): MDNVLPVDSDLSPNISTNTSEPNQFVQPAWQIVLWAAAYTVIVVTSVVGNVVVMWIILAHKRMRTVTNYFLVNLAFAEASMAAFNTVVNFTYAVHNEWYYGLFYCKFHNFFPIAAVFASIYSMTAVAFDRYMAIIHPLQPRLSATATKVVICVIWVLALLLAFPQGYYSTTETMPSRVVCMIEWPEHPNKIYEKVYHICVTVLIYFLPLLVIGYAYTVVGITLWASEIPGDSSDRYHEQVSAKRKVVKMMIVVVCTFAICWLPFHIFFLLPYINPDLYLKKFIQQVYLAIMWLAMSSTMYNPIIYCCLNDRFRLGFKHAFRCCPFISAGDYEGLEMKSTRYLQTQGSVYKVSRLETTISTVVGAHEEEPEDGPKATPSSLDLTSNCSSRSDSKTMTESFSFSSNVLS

A word on the Ki: it is a dissociation constant, usually derived from enzyme kinetics or from competition with a known ligand. Low values mean higher affinity, high ones lower affinity. As to `Cc1cc(C)cc(C(=O)N2CCN(C(=O)CCN3C[C@@H]4C[C@H]3CN4C(=O)[C@H](Cc3ccccc3)NC(=O)OC(C)(C)C)[C@H](c3ccc(Cl)c(Cl)c3)C2)c1`, the Ki in assay [1] came to 14 nM; in assay [2], 45 nM.

Turning to `Cc1cc(C)cc(C(=O)N2CCN(C(=O)CCN3C[C@@H]4C[C@H]3CN4C(=O)[C@@H](N)Cc3cccs3)[C@H](c3ccc(Cl)c(Cl)c3)C2)c1`, the values for the Ki in assay [1] and in assay [2] were 0.35 nM and 16 nM, respectively.

Turning to `CNC(=O)N[C@H](Cc1ccccc1)C(=O)N1C[C@@H]2C[C@H]1CN2CCC(=O)N1CCN(C(=O)c2cc(C)cc(C)c2)C[C@H]1c1ccc(Cl)c(Cl)c1` [35 (R = --CH3)], the Ki in assay [1] is 0.93 nM; in assay [2] it was 6.3 nM.

`Cc1cc(C)cc(C(=O)N2CCN(C(=O)CCN3C[C@@H]4C[C@H]3CN4C(=NC#N)Nc3ccccc3)[C@H](c3ccc(Cl)c(Cl)c3)C2)c1` [Example 30]: the figures for the inhibition constant (Ki) in assay [1] and in assay [2] were 24 nM and 34 nM, respectively.

Take `Cc1cc(C)cc(C(=O)N2CCN(C(=O)CO[C@@H]3C[C@@H]4C[C@H]3CN4Cc3ccsc3)[C@H](c3ccc(Cl)c(Cl)c3)C2)c1` [Example 50, 2(R)-(3,4-Dichlorophenyl)-4-(3,5-dimethylbenzoyl)-1-[[[exo-2-(3-thienylmethyl)-1(S),4(S)-2-azabicyclo[2.2.1]heptan-5-yl)oxy]acetyl]piperazine]: the Ki in assay [1] amounted to 2.6 nM; in assay [2], 1.8 nM.

Consider `CC(=O)Nc1ccc(CN2C[C@@H]3C[C@H]2C[C@H]3OCC(=O)N2CCN(C(=O)c3cc(C)cc(C)c3)C[C@H]2c2ccc(Cl)c(Cl)c2)cc1` [Example 51], for which the results for the Ki in assay [1] and in assay [2] were 4.4 nM and 1.5 nM, respectively.

Consider `Cc1cc(C)cc(C(=O)N2CCN(C(=O)CO[C@H]3C[C@H]4CC[C@@H](C3)N4C(=O)OC(C)(C)C)[C@H](c3ccc(Cl)c(Cl)c3)C2)c1` [Example 56, (Endo)-1,1-dimethylethyl 3-[2-[2(R)-(3,4-dichlorophenyl)-4-(3,5-dimethylbenzoyl)-1-piperazinyl]-2-oxoethoxy]-8-aza[3.2.1]octane-8-carboxylate], for which the Ki in assay [1] was 55 nM; in assay [2] it was > 100 nM.

`CNC(=O)c1ccc(CN2[C@@H]3CC[C@H]2C[C@@H](OCC(=O)N2CCN(C(=O)c4cc(C)cc(C)c4)C[C@H]2c2ccc(Cl)c(Cl)c2)C3)cc1` [Example 58]: the Ki in assay [1] came out at 57 nM; in assay [2], 19 nM.

Consider `Cc1cc(C)cc(C(=O)N2CCN(C(=O)CN[C@H]3C[C@H]4CC[C@@H](C3)N4C(=O)OC(C)(C)C)[C@H](c3ccc(Cl)c(Cl)c3)C2)c1` [Example 67], for which the values for the Ki in assay [1] and in assay [2] were 9.3 nM and 159 nM, respectively.
